≈ marks a conversion by molar mass, not a printed value.
How the values were obtained:
Assay type in all cases: cell-based
S. aureus ATCC 13709 = experiment: MIC, antibacterial potency, S. aureus; settings: S. aureus (SA); in µg/mL
S. pneumoniae ATCC 51916 = experiment: MIC, S. pneumoniae; settings: S. pneumoniae (Spn52); in µg/mL
E. coli 8 ATCC 25922 = experiment: MIC, E. coli 8 (wt); settings: E. coli 8 (EC8)

Row | SMILES | MIC, SA (S. aureus ATCC 13709) | MIC Spn52 (S. pneumoniae ATCC 51916) | MIC EC8 (E. coli 8 ATCC 25922) [µg/mL]
1 | CCc1[nH]c2nc(Oc3ccc4nccnc4c3)nc(Oc3cncc(C#N)c3)c2c1Br [700,987] | <=0.5 | <=0.5 | > 64
2 | CCc1[nH]c2nc(Oc3ccc4nccnc4c3)nc(Oc3cnc4c(c3)ncn4C)c2c1Br [700,988] | <=0.5 | <=0.5 | > 64
3 | CCc1[nH]c2nc(Oc3ccc4nccnc4c3)nc(N3CC4C(C3)C4(N)C(N)=O)c2c1Cl (stereo not drawn) [700,989] | <=0.5 | <=0.5 | > 64
4 | CCc1[nH]c2nc(Sc3ccc4cc5c([n+]([O-])c4c3)CCNC5)nc(N3CCc4nc(N)sc4C3)c2c1Cl [700,990] | 1 | 16 | > 64
5 | CCc1[nH]c2nc(Sc3ccc4cccnc4c3)nc(N3CC[C@@H](N)C3)c2c1Cl [700,991] | 1 | 2 | 32 (≈ 75.3 µM)
6 | CCc1[nH]c2nc(Sc3ccc4cccnc4c3)nc(N3CC4C(N)C4C3)c2c1Cl (stereo not drawn) [700,992] | <=0.5 | <=0.5 | > 64
7 | CCc1[nH]c2nc(Sc3ccc4ccc[n+]([O-])c4c3)nc(N3CC[C@@H](N)C3)c2c1Cl [700,993] | <=0.5 | 2 | 16 (≈ 36.3 µM)
8 | CCc1[nH]c2nc(Sc3ccc4ccc[n+]([O-])c4c3)nc(N3CC4C(N)C4C3)c2c1Cl (stereo not drawn) [700,994] | <=0.5 | <=0.5 | 8 (≈ 17.7 µM)
9 | NC1CN(c2ncnc3cc(Sc4nc(N5CC[C@@H](N)C5)c5c(Cl)c(C6CC6)[nH]c5n4)ccc23)C1 [700,995] | >64 | >64 | 64 (≈ 126 µM)
10 | CCc1[nH]c2nc(Oc3cnc4c(c3)ncn4C)nc(Oc3cncc(C#N)c3)c2c1Br [700,996] | <=0.5 | <=0.5 | > 64
11 | CCc1[nH]c2nc(Oc3ccc4nccnc4c3)nc(Oc3ccc4c(c3)ncn4C)c2c1Br [700,998] | <=0.5 | 1 | > 64
12 | CCc1[nH]c2nc(Oc3cncc(C#N)c3)nc(N3CC[C@@H](NC(C)=O)C3)c2c1Cl [700,999] | 2 | 2 | > 64
13 | CCc1[nH]c2nc(Oc3ccc4nccnc4c3)nc(N3CC[C@@H](N)C3)c2c1Cl [701,000] | 4 | 8 | 64 (≈ 156 µM)
14 | CCc1[nH]c2nc(Oc3ccc4nccnc4c3)nc(N3CC[C@@H](NC(C)=O)C3)c2c1Cl [701,001] | 4 | 8 | > 64
15 | CCc1[nH]c2nc(Sc3ccc(/C=C/C(=O)O)c(F)c3)nc(N3CC[C@@H](N)C3)c2c1Cl [701,002] | 4 | >64 | > 64
16 | CCc1[nH]c2nc(Sc3cnc4cccnc4c3)nc(N3CCNCCNCC3)c2c1Cl [701,003] | >64 | 32 | > 64
17 | CCc1[nH]c2nc(Sc3cnc4cccnc4c3)nc(N3C[C@H](C(=O)NC4CNC4)[C@@H](N)C3)c2c1Cl [701,004] | 32 | >64 | > 64
18 | CCc1[nH]c2nc(Sc3ccc4nccnc4c3)nc(N3CC[C@@H](N)C3)c2c1Cl [701,005] | <=0.5 | <=0.5 | 16 (≈ 37.6 µM)
19 | CCc1[nH]c2nc(Sc3ccc4nccnc4c3)nc(N3C[C@@H]4C(N)[C@@H]4C3)c2c1Cl (stereo partly drawn) [701,006] | <=0.5 | <=0.5 | > 64
20 | CCc1[nH]c2nc(Oc3ccc4nccnc4c3)nc(Oc3ccc4ncn(C)c4c3)c2c1Cl [701,007] | <=0.5 | 2 | > 64
21 | CCc1[nH]c2nc(Sc3ccc4cc(C#N)c[n+]([O-])c4c3)nc(N3CC4C(N)C4C3)c2c1Cl (stereo not drawn) [701,010] | <=0.5 | 1 | > 16
22 | CCc1[nH]c2nc(Oc3ccc4nccnc4c3)nc(N3CC4C(C3)C4NC(C)=O)c2c1Cl (stereo not drawn) [701,012] | 1 | 2 | > 64
23 | CCc1[nH]c2nc(Sc3ccc4nc(N5CC(N)C5)cnc4c3)nc(N3C[C@@H]4C(N)[C@@H]4C3)c2c1Cl (stereo partly drawn) [701,013] | 1 | 2 | 16 (≈ 31.5 µM)
24 | CCc1[nH]c2nc(Sc3ccc4nc(N5CC(N)C5)cnc4c3)nc(N3CC[C@@H](N)C3)c2c1Cl [701,014] | 4 | 8 | 32 (≈ 64.5 µM)
25 | CCc1[nH]c2nc(Sc3cc(C(=O)NOC)c4ncccc4c3)nc(N3CC[C@@H](N)C3)c2c1Cl [701,015] | <=0.5 | 2 | > 64
26 | CCc1[nH]c2nc(Sc3cnc4cccnc4c3)nc(N3C[C@H](N)[C@H](C(=O)N4CC(N)C4)C3)c2c1Cl [701,016] | >64 | >64 | > 64

Row | SMILES | MIC, SA (S. aureus ATCC 13709) | MIC Spn52 (S. pneumoniae ATCC 51916) | MIC EC8 (E. coli 8 ATCC 25922) [µg/mL]
27 | CCc1[nH]c2nc(Sc3cnc4cccnc4c3)nc(N3C[C@H](N)[C@H](C(=O)NCC(C)C)C3)c2c1Cl [701,017] | 2 | 1 | > 64
28 | CCc1[nH]c2nc(Sc3cnc4cccnc4c3)nc(N3C[C@H](N)[C@H](C(=O)NCC(C)O)C3)c2c1Cl (stereo partly drawn) [701,018] | >64 | 16 | > 64
29 | CCc1[nH]c2nc(Sc3cnc4cccnc4c3)nc(N3C[C@H](N)[C@H](C(=O)NCC(O)CO)C3)c2c1Cl (stereo partly drawn) [701,019] | >32 | >32 | > 32
30 | CCc1[nH]c2nc(Sc3cnc4cccnc4c3)nc(N3C[C@H](N)[C@H](C(=O)NCc4cccnc4)C3)c2c1Cl [701,020] | 4 | 2 | > 64
31 | CCc1[nH]c2nc(Sc3cnc4cccnc4c3)nc(N3C[C@H](N)[C@H](C(=O)N[C@@H](CO)c4ccccc4)C3)c2c1Cl [701,021] | 4 | 4 | > 64
32 | CCc1[nH]c2nc(Sc3cnc4cccnc4c3)nc(N3C[C@@H](N)[C@@H](C(=O)N[C@@H](CO)c4ccccc4)C3)c2c1Cl [701,022] | 4 | 2 | > 64
33 | CCc1[nH]c2nc(Sc3cnc4cccnc4c3)nc(N3C[C@H](N)[C@H](C(=O)N4CC[C@@H](N)C4)C3)c2c1Cl [701,023] | >64 | >64 | > 64
34 | CCc1[nH]c2nc(Sc3cnc4cccnc4c3)nc(N3C[C@H](N)[C@H](C(=O)Nc4nccs4)C3)c2c1Cl [701,024] | 2 | 2 | > 64
35 | CCc1[nH]c2nc(Sc3cnc4ccc[n+]([O-])c4c3)nc(N3CC4CNC4C3)c2c1Cl (stereo not drawn) [701,025] | <=0.5 | 2 | 16 (≈ 35.2 µM)
36 | CCc1[nH]c2nc(Sc3cnc4ccc[n+]([O-])c4c3)nc(N3CC4CCNC4C3)c2c1Cl (stereo not drawn) [701,026] | <=0.5 | 1 | 8 (≈ 17.1 µM)
37 | CCc1[nH]c2nc(Sc3cnc4ccc[n+]([O-])c4c3)nc(N3CC(O)C3)c2c1Cl [701,027] | <=0.5 | 1 | > 64
38 | CCNC(=O)NC1C2CN(c3nc(Sc4cnc5cccnc5c4)nc4[nH]c(CC)c(Cl)c34)CC21 (stereo not drawn) [701,028] | <=0.5 | <=0.5 | > 64
39 | CCc1[nH]c2nc(Oc3ccc4nccnc4c3)nc(N3CCOCC3)c2c1Cl [701,029] | 2 | 4 | > 64
40 | CCc1[nH]c2nc(Oc3cnc4c(c3)ncn4C)nc(Oc3ccc4nccnc4c3)c2c1Br [701,030] | <=0.5 | <=0.5 | > 64
41 | CCc1[nH]c2nc(Oc3cncc(C#N)c3)nc(N3CCOCC3)c2c1Cl [701,031] | <=0.5 | 2 | > 64
42 | CCc1[nH]c2nc(Oc3cnc4c(c3)ncn4C)nc(N3CC[C@@H](NC(C)=O)C3)c2c1Br [701,032] | 8 | 8 | > 64
43 | CCc1[nH]c2nc(Oc3cnc4c(c3)ncn4C)nc(N3CC[C@@H](N)C3)c2c1Cl [701,033] | >64 | >64 | > 64
44 | CCc1[nH]c2nc(Oc3cnc4c(c3)ncn4C)nc(N3CC[C@@H](NC(C)=O)C3)c2c1Cl [701,034] | 4 | 4 | > 64
45 | CCOC(=O)NCC1CCN(c2nc(Sc3cnc4cccnc4c3)nc3[nH]c(CC)c(Cl)c23)C1 (stereo not drawn) [701,035] | <=0.5 | <=0.5 | > 64
46 | CCc1[nH]c2nc(Sc3cnc4ccc[n+]([O-])c4c3)nc(N3CC(N)C3)c2c1Cl [701,036] | <=0.5 | 2 | 16 (≈ 37.4 µM)
47 | CCc1[nH]c2nc(Sc3cnc4ccc[n+]([O-])c4c3)nc(N(C)CCNC)c2c1Cl [701,037] | 8 | 16 | > 64
48 | CCc1[nH]c2nc(Sc3cnc4ccc[n+]([O-])c4c3)nc(N3CC4(CNC4)C3)c2c1Cl [701,038] | 8 | 32 | 16 (≈ 35.2 µM)
49 | CCc1[nH]c2nc(Sc3ccc4oc(C)nc4c3)nc(N3CC[C@@H](N)C3)c2c1Cl [701,039] | 8 | 8 | > 64
50 | CCc1[nH]c2nc(Sc3ccc4c(OC)cc[n+]([O-])c4c3)nc(N3CC[C@@H](N)C3)c2c1Cl [701,040] | <=0.5 | 4 | 32 (≈ 67.9 µM)
51 | CCc1[nH]c2nc(Oc3cncc(OC)c3)nc(N3CC4C(N)C4C3)c2c1Cl (stereo not drawn) [701,041] | 8 | 16 | > 32
52 | CCc1[nH]c2nc(Sc3cnc4cccnc4c3)nc(N3CCC(CNS(C)(=O)=O)C3)c2c1Cl (stereo not drawn) [701,042] | <=0.5 | 1 | > 64

Source: patent US10047105B2, “Gyrase inhibitors” (Merck Sharp & Dohme Corp., priority 2009, dated 2018)
